Assay results: patent US20120083522A1, “MODULATION OF INFLAMMATORY RESPONSES BY FACTOR XI” (Isis Pharmaceuitcals, inc., priority 2009, published 2012)
In the oligonucleotide strings, read from the 5' end, every base follows the letter of its sugar. An asterisk marks phosphorothioate; unmarked linkages are phosphodiester. Other units and linkages are bracketed, terminal groups are in braces. A string of capitals states the bases alone. e = 2'-O-(2-methoxyethyl) (MOE); [5mC] = 5-methylcytosine; d = 2'-deoxy (DNA)

Key:
Type in all cases: in vivo
Factor XI protein [1] = assay: Cynomolgus monkeys: plasma Factor XI protein ELISA (Example 29); conditions: for Inhibition of Factor XI protein relative to the PBS control: escalating doses 5, 10, 25 mg/kg s.c.
Method: (§1) Groups, each consisting of two male and three female monkeys, were injected subcutaneously with ISIS 416838, ISIS 416850, ISIS 416858, ISIS 416864, or ISIS 417002 in escalating doses. Antisense oligonucleotide was administered to the monkeys at 5 mg/kg three times per a week for week 1; 5 mg/kg twice per week for weeks 2 and 3; 10 mg/kg three times per week for week 4; 10 mg/kg twice per week for weeks 5 and 6; 25 mg/kg three times per week for week 7; and 25 mg/kg twice per week for weeks 8, 9, 10, 11, and 12. One control group, consisting of two male and three female monkeys, was injected subcutaneously with PBS according to the same dosing regimen. An additional experimental group, consisting of two male and three female monkeys, was injected subcutaneously with ISIS 416850 in a chronic, lower dose regimen. Antisense oligonucleotide was administered to the monkeys at 5 mg/kg three times per week for week 1; 5 mg/kg twice per week for week 2 and 3; 10 mg/kg three times per week for week 4; and 10 mg/kg twice per week for weeks 5 to 12. Body weights were measured weekly. Blood samples were collected 14 days and 5 days before the start of treatment and subsequently once per week for Factor XI protein activity analysis in plasma and measurement of various hematologic factors. On day 85, the monkeys were euthanized by exsanguination while under deep anesthesia, and organs harvested for further analysis.
(§2) Plasma samples from all monkey groups taken on different days were analyzed by a sandwich-style ELISA assay (Affinity Biologicals Inc.) using an affinity-purified polyclonal anti-Factor XI antibody as the capture antibody and a peroxidase-conjugated polyclonal anti-Factor XI antibody as the detecting antibody. Monkey plasma was diluted 1:50 for the assay. Peroxidase activity was expressed by incubation with the substrate o-phenylenediamine. The color produced was quantified using a microplate reader at 490 nm and was considered to be proportional to the concentration of Factor XI in the samples.
The results are presented in Table 122, expressed as percentage reduction relative to that of the PBS control.

[2] = Cynomolgus monkeys: body and organ weights (Example 29); conditions: for Body weight: escalating doses 5, 10, 25 mg/kg s.c.
Method: as §1
Body weights were taken once weekly throughout the dosing regimen. […] Organ weights were taken after the animals were euthanized and livers, kidneys and spleens were harvested and weighed. […] The ISIS oligonucleotide, ISIS 416850, given with the chronic dose regimen is distinguished from the other oligonucleotides with an asterisk (*).

[3] = Cynomolgus monkeys: hematology assays (Example 29)
Method: as §1
The ISIS oligonucleotide, ISIS 416850, given with the chronic dose regimen is distinguished from the other oligonucleotides with an asterisk (*).

Factor XI mRNA = assay: Cynomolgus monkeys, 25 mg/kg: liver Factor XI RNA analysis (Example 30); conditions: cynomolgus monkeys, day 55, in comparison to the PBS control
Method: (§3) Groups, each consisting of two male and two female monkeys, were injected subcutaneously with 25 mg/kg of ISIS 416850, ISIS 449709, ISIS 445522, ISIS 449710, ISIS 449707, ISIS 449711, ISIS 449708, 416858 and ISIS 445531. Antisense oligonucleotide was administered to the monkeys at 25 mg/kg three times per week for week 1 and 25 mg/kg twice per week for weeks 2 to 8. A control group, consisting of two male and two female monkeys was injected subcutaneously with PBS according to the same dosing regimen. Body weights were taken 14 days and 7 days before the start of treatment and were then measured weekly throughout the treatment period. Blood samples were collected 14 days and 5 days before the start of treatment and subsequently several times during the dosing regimen for measurement of various hematologic factors. On day 55, the monkeys were euthanized by exsanguination while under deep anesthesia, and organs harvested for further analysis.
On day 55, RNA was extracted from liver tissue for real-time PCR analysis of Factor XI using primer probe set LTS00301. Results are presented as percent inhibition of Factor XI, relative to PBS control.

Factor XI protein [4] = assay: Cynomolgus monkeys: plasma Factor XI protein ELISA (Example 30); conditions: cynomolgus monkeys, Example 30
Method: as §3, §2
The results are presented in Table 148, expressed as percentage reduction relative to that of the PBS control.

[5] = system: IL-1β, IL-6, IFN-γ, TNF-α, IL-8, MIP-1α, MCP-1, MIP-10, RANTES; assay: Cynomolgus monkeys: cytokine and chemokine assays (Example 30)
Method: as §3
Blood samples obtained from all monkey groups were sent to Pierce Biotechnology (Woburn, Mass.) for measurements of chemokine and cytokine levels. Levels of IL-1β, IL-6, IFN-γ, and TNF-α were measured using the respective primate antibodies and levels of IL-8, MIP-1α, MCP-1, MIP-10 and RANTES were measured using the respective cross-reacting human antibodies. Measurements were taken 14 days before the start of treatment and on day 55, when the monkeys were euthanized.

[6] = Tolerability in CD1 mice: body and organ weight (Example 25); conditions: 50 mg/kg s.c. twice per week for 6 weeks; for Kidney weight as percentage of body weight / Liver weight as percentage of body weight / Spleen weight as percentage of body weight: end of study
[7] = day −14 (before start of treatment)

## ISIS 416858: gapmer of Table 8 (antisense eA*e[5mC]*eG*eG*e[5mC]*dA*dT*dT*dG*dG*dT*dG*d[5mC]*dA*d[5mC]*eA*eG*eT*eT*eT)
Factor XI protein [1]; Example 29
  Factor XI protein levels (in words): time-dependent decrease in protein levels
Factor XI protein [1]; day 8
  Inhibition of Factor XI protein relative to the PBS control: 6%
Factor XI protein [1]; day 15
  Inhibition of Factor XI protein relative to the PBS control: 16%
Factor XI protein [1]; day 22
  Inhibition of Factor XI protein relative to the PBS control: 23%
Factor XI protein [1]; day 29
  Inhibition of Factor XI protein relative to the PBS control: 28%
Factor XI protein [1]; day 36
  Inhibition of Factor XI protein relative to the PBS control: 35%
Factor XI protein [1]; day 43
  Inhibition of Factor XI protein relative to the PBS control: 39%
Factor XI protein [1]; day 50
  Inhibition of Factor XI protein relative to the PBS control: 49%
Factor XI protein [1]; day 57
  Inhibition of Factor XI protein relative to the PBS control: 60%
Factor XI protein [1]; day 64
  Inhibition of Factor XI protein relative to the PBS control: 68%
Factor XI protein [1]; day 71
  Inhibition of Factor XI protein relative to the PBS control: 71%
Factor XI protein [1]; day 78
  Inhibition of Factor XI protein relative to the PBS control: 73%
Factor XI protein [1]; day 85
  Inhibition of Factor XI protein relative to the PBS control: 78%
Factor XI protein [1]; day −5 (before treatment)
  Inhibition of Factor XI protein relative to the PBS control: 0%
Factor XI protein [1]; day −14 (before treatment)
  Inhibition of Factor XI protein relative to the PBS control: 0%
[2]; Example 29
  spleen weight (in words): increase in spleen weight
[2]; after euthanasia
  Kidney weight: 13 g
  Liver weight: 60 g
  Spleen weight: 12 g
[2]; day 1
  Body weight: 2912 g
[2]; day 8
  Body weight: 2740 g
[2]; day 15
  Body weight: 2760 g
[2]; day 22
  Body weight: 2800 g
[2]; day 29
  Body weight: 2763 g
[2]; day 36
  Body weight: 2584 g
[2]; day 43
  Body weight: 2607 g
[2]; day 50
  Body weight: 2646 g
[2]; day 57
  Body weight: 2617 g
[2]; day 64
  Body weight: 2618 g
[2]; day 71
  Body weight: 2865 g
[2]; day 78
  Body weight: 2713 g
[3]; day 8
  platelet count: 391000 µL⁻¹
[3]; day 15
  platelet count: 400000 µL⁻¹
[3]; day 22
  platelet count: 316000 µL⁻¹
[3]; day 29
  platelet count: 336000 µL⁻¹
[3]; day 36
  platelet count: 371000 µL⁻¹
[3]; day 43
  platelet count: 342000 µL⁻¹
[3]; day 50
  platelet count: 331000 µL⁻¹
[3]; day 57
  platelet count: 333000 µL⁻¹
[3]; day 64
  platelet count: 295000 µL⁻¹
[3]; day 71
  platelet count: 286000 µL⁻¹
[3]; day 78
  platelet count: 262000 µL⁻¹
[3]; day 85
  platelet count: 267000 µL⁻¹
[3]; day −5
  platelet count: 463000 µL⁻¹
[3]; day −14
  platelet count: 419000 µL⁻¹
Factor XI mRNA
  Factor XI mRNA in liver (in words): significant reduction of Factor XI mRNA
Factor XI protein [4]
  Factor XI protein levels (in words): time-dependent decrease in protein levels
[5]; 25 mg/kg s.c., day 55
  IL-1β level: 28 pg/mL
  MIP-1β level: 47 pg/mL
[5]; [7]
  IL-1β level: 103 pg/mL
  MIP-1β level: 37 pg/mL

## ISIS 445522: microwalk gapmer of Table 51 (antisense eG*e[5mC]*eA*e[5mC]*eA*dG*dT*dT*dT*d[5mC]*dT*dG*dG*e[5mC]*eA*eG*eG*e[5mC])
Factor XI mRNA
  Factor XI mRNA in liver (in words): significant reduction of Factor XI mRNA
Factor XI protein [4]
  Factor XI protein levels (in words): time-dependent decrease in protein levels
[6]
  Body weight (increase over PBS control weight before start of treatment): 11 g
  Kidney weight as percentage of body weight: 1.7%
  Liver weight as percentage of body weight: 6%
  Spleen weight as percentage of body weight: 0.4%
[5]; 25 mg/kg s.c., day 55
  IL-1β level: 341 pg/mL
  MIP-1β level: 63 pg/mL
[5]; [7]
  IL-1β level: 188 pg/mL
  MIP-1β level: 27 pg/mL

## ISIS 445531: microwalk gapmer of Table 51 (antisense eG*eG*e[5mC]*eA*eT*dT*dG*dG*dT*dG*d[5mC]*dA*d[5mC]*eA*eG*eT*eT*eT)
Factor XI mRNA
  Factor XI mRNA in liver (in words): significant reduction of Factor XI mRNA
[6]
  Body weight (increase over PBS control weight before start of treatment): 10 g
  Kidney weight as percentage of body weight: 1.5%
  Liver weight as percentage of body weight: 6%
  Spleen weight as percentage of body weight: 0.5%
[5]; 25 mg/kg s.c., day 55
  IL-1β level: 155 pg/mL
  MIP-1β level: 84 pg/mL
[5]; [7]
  IL-1β level: 101 pg/mL
  MIP-1β level: 22 pg/mL

## ISIS 449707: microwalk gapmer of Table 53 (antisense e[5mC]*eA*e[5mC]*eA*dG*dT*dT*dT*d[5mC]*dT*dG*dG*e[5mC]*eA*eG*eG)
Factor XI mRNA
  Factor XI mRNA in liver (in words): significant reduction of Factor XI mRNA
[5]; 25 mg/kg s.c., day 55
  IL-1β level: 97 pg/mL
  MIP-1β level: 49 pg/mL
[5]; [7]
  IL-1β level: 115 pg/mL
  MIP-1β level: 13 pg/mL

## ISIS 449708: microwalk gapmer of Table 53 (antisense eA*e[5mC]*eA*dG*dT*dT*dT*d[5mC]*dT*dG*dG*e[5mC]*eA*eG)
Factor XI mRNA
  Factor XI mRNA in liver (in words): significant reduction of Factor XI mRNA
[5]; 25 mg/kg s.c., day 55
  IL-1β level: 131 pg/mL
  MIP-1β level: 128 pg/mL
[5]; [7]
  IL-1β level: 35 pg/mL
  MIP-1β level: 19 pg/mL

## ISIS 449709: microwalk gapmer of Table 53 (antisense eG*e[5mC]*eA*e[5mC]*dA*dG*dT*dT*dT*d[5mC]*dT*dG*dG*d[5mC]*eA*eG*eG*e[5mC])
Factor XI mRNA
  Factor XI mRNA in liver (in words): significant reduction of Factor XI mRNA
Factor XI protein [4]
  Factor XI protein levels (in words): time-dependent decrease in protein levels
[5]; 25 mg/kg s.c., day 55
  IL-1β level: 181 pg/mL
  MIP-1β level: 47 pg/mL
[5]; [7]
  IL-1β level: 137 pg/mL
  MIP-1β level: 14 pg/mL

## ISIS 449710: microwalk gapmer of Table 53 (antisense e[5mC]*eA*e[5mC]*dA*dG*dT*dT*dT*d[5mC]*dT*dG*dG*d[5mC]*eA*eG*eG)
Factor XI mRNA
  Factor XI mRNA in liver (in words): significant reduction of Factor XI mRNA
[5]; 25 mg/kg s.c., day 55
  IL-1β level: 286 pg/mL
  MIP-1β level: 53 pg/mL
[5]; [7]
  IL-1β level: 271 pg/mL
  MIP-1β level: 18 pg/mL
